Data: US20260165325A1, “NEW SUBSTITUTED TETRAHYDROBENZOXAZEPINE” (BASF SE, priority 2022, published 2026)

Key:
Sclerotinia sclerotiorum = assay: Preventative fungicidal control of white mold on oilseed rape caused by Sclerotinia sclerotiorum; assay type: in vivo; settings: 100 g/ha, assessed after 14 days, untreated plants 100% infected
Description: The compound was dissolved in a mixture of acetone and/or dimethylsulfoxide and the wetting agent/emulsifier Wettol, which is based on ethoxylated alkylphenoles, in a ratio (volume) solvent-emulsifier of 99 to 1 to give a total volume of 5 ml. Subsequently, water was added to total volume of 100 ml. This stock solution was then diluted with the described solvent-emulsifier-water mixture to the final concentration given in the table below. Oilseed rapes were grown in pots to the 13 to 14 leaf stage. These plants were sprayed to run-off with previously described spray solution, containing the concentration of active ingredient or their mixture mentioned in the table below. The plants could air-dry. The next day the applicated rape petals were fixed with 25 μl of 2.5% methylcellulose on leaf 1 and 2. 25 μl of a spore suspension of Sclerotinia sclerotiorum was pipetted on each fixed rape petal. After 14 days at 20° C. and a relative humidity of 60% the extent of fungal attack on the leaves was visually assessed as % diseased leaf area.

Alternaria solani = assay: Activity against the early blight pathogen Alternaria solani in the microtiterplate test; assay type: cell-based; settings: 31 ppm active substance; MTP measured at 405 nm 7 days after inoculation, 18° C.
Fusarium culmorum = assay: Activity against Fusarium culmorum in the microtiterplate test; assay type: cell-based; settings: 31 ppm active substance; MTP measured at 405 nm 7 days after inoculation, 18° C.
Description: The active compounds were formulated separately as a stock solution having a concentration of 10000 ppm in dimethyl sulfoxide.
The stock solutions were mixed according to the ratio, pipetted onto a micro titer plate (MTP) and diluted with water to the stated concentrations. A spore suspension of Fusarium culmorum in an aqueous biomalt or yeast-bactopeptone-glycerine or DOB solution was then added. The plates were placed in a water vapor-saturated chamber at a temperature of 18° C. Using an absorption photometer, the MTPs were measured at 405 nm 7 days after the inoculation.

Row | Structure (SMILES) | growth of the pathogen (% diseased leaf area) (Sclerotinia sclerotiorum) | growth of the pathogen (Alternaria solani) | growth of the pathogen (Fusarium culmorum)
1 | Cc1cc(C2NC(C)C(C)(C)Oc3c(F)cccc32)cnc1C(F)F (mixture of isomers) [Ex-7] | at most 1% | 23% | 
2 | Cc1cc(C2c3ccccc3OCC3(CC3)N2C)cnc1C(F)F (centres unmarked) [Ex-1, 5-(6-(difluoromethyl)-5-methylpyridin-3-yl)-4-methyl-4,5-dihydro-2H-spiro[benzo[f][1,4]oxazepine-3,1′-cyclopropane]] |  | 23% | 1%
3 | Cc1cc(C2NC(C)C(C)(C)Oc3c(F)cccc32)cnc1C (mixture of isomers) [Ex-6] |  | 23% | 
